# In publication PMC10333884, “Large‐scale phosphomimetic screening identifies phospho‐modulated motif‐based protein interactions” (Molecular Systems Biology, 2023):
# Where “and” joins values, the source holds several entries; their conditions need not be identical. Equal entries are not always repeated. Non-standard residues stand in square brackets, D forms with d. Residues, ends and D or L forms follow the SMILES beside them. pS = N[C@@H](COP(=O)(O)O)C(=O)O
# Legend:
# Assay type in all cases: binding
# Clathrin NTD [1] = target: T1, Clathrin NTD (Homo sapiens, UniProt Q00610); assay: FP displacement assay, clathrin NTD
# T1 construct: GST (cleaved yes); made in house; host or cells: Escherichia coli BL21-Gold(DE3)
# T1 sequence (Q00610 1-364): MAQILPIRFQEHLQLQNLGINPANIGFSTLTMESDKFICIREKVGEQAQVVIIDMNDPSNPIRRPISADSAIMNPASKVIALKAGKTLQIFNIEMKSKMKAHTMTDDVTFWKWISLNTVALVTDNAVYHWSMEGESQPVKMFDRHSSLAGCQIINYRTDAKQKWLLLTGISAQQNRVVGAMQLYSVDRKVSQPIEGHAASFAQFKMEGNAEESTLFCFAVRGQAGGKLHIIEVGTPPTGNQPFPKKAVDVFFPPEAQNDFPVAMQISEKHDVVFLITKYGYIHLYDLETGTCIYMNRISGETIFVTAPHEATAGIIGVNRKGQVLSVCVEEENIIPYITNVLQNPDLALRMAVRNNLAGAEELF
# Procedure: (§1) FP experiments were performed as described previously (Kliche et al, [2021]). Shortly, in order to monitor the binding event, FITC‐labelled peptides were used (excitation 495 nm, emission: 535 nm) and the FP signal was recorded in mP on a SpectraMax iD5 Multi‐Mode Microplate Reader (Molecular Devices) by measuring the emitted light in two angels. The measurements were performed at room temperature and prepared in nonbinding black half area 96‐well microplates (Corning®; 50 μl/well). For measuring direct binding, that is saturation curves, a 1:1 dilution series of protein domain (25 μl/well) was generated in 50 mM sodium phosphate buffer pH 7.4 and the measurement performed with 5 nM FITC‐labelled peptide (25 μl/well). The buffer‐corrected values were subsequently plotted with PRISM and fitted to the quadratic equation (Gianni et al, [2005]).
# (§2) The 1:1 dilution series in this experiment was performed with the unlabelled peptide in 50 mM sodium phosphate buffer pH 7.4, so that each well‐contained unlabelled peptide (25 μl) at a certain concentration and pre‐formed complex (25 μl). The KD values of this indirectly monitored binding event were calculated as described previously (Nikolovska‐Coleska et al, [2004]). All measurements were at least in technical triplicates as well as biological duplicates when indicated. An amplitude shift between repeat measurements in the displacement experiments was occasionally observed due to variations in the protein preparations. If that was the case, the “active” protein concentration was back‐calculated according to the quadratic equation from the saturation curves performed in parallel. By comparing the active protein concentrations in the complex between different protein preparations, the amplitude was normalised.
# Clathrin NTD [2] = target: T1, Clathrin NTD; assay: ITC, clathrin NTD; settings: ITC (iTC200), 50 mM sodium phosphate pH 7.4, 1 mM DTT; average of the runs, at least technical triplicates
# RANBP2 RanBD4 = target: T2, RANBP2 RanBD4 (Homo sapiens, UniProt P49792); assay: FP displacement assay, RANBP2 RanBD4; settings: probe FITC-C7orf25 5 nM, 50 mM sodium phosphate pH 7.4, room temperature, at least three technical replicates, read-out: KD values ± SEM
# T2 construct: GST (cleaved yes); made in house; host or cells: Escherichia coli BL21-Gold(DE3)
# T2 sequence (P49792 2924-3050): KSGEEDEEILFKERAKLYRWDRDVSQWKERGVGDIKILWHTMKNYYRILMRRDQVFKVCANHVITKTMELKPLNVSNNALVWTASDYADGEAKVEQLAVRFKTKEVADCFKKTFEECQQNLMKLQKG
# Procedure: as §1, §2
# 14-3-3 theta = target: T3, 14-3-3 theta (Homo sapiens, UniProt P27348); assay: FP displacement assay, 14-3-3 theta; settings: probe FITC-2BTP; technical triplicates
# T3 construct: GST (cleaved yes); made in house; host or cells: Escherichia coli BL21-Gold(DE3)
# T3 sequence (P27348 1-245): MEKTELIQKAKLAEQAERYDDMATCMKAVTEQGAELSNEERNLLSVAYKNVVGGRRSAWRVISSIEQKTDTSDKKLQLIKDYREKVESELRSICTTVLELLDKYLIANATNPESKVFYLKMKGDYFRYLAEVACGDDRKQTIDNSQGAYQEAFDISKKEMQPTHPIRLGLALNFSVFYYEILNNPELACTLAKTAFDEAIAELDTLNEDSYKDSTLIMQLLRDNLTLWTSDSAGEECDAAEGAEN
# Procedure: as §1, §2
# AP2 μ2 = target: T4, AP2 μ2 (Homo sapiens, UniProt Q96CW1); assay: FP displacement assay, AP2 μ2; settings: probe FITC-ATG9A 5 nM, 50 mM sodium phosphate pH 7.4, room temperature, at least three technical replicates, read-out: KD values ± SEM
# T4 construct: AP2_Mu__Q96CW1_160_435; GST (cleaved yes); made in house; host or cells: Escherichia coli BL21-Gold(DE3)
# T4 sequence (Q96CW1 160-435): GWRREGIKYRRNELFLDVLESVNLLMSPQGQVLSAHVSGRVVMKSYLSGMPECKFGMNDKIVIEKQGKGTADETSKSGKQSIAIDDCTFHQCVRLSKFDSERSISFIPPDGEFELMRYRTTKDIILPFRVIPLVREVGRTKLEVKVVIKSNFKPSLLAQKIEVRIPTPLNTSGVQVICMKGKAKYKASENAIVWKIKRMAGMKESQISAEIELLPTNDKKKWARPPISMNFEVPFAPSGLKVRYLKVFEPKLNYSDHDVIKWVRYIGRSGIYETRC
# Procedure: as §1, §2
compound,measurement,setting,value
CC[C@H](C)[C@H](NC(=O)[C@H](CC(C)C)NC(=O)[C@H](CC(N)=O)NC(=O)CNC(=O)CNC(=O)[C@H](Cc1ccc(O)cc1)NC(C)=O)C(=O)N[C@H](C(=O)N[C@@H](Cc1ccccc1)C(=O)N[C@@H](CO)C(=O)N1CCC[C@H]1C(=O)N[C@@H](CC(C)C)C(=O)N[C@@H](CCC(N)=O)C(=O)N1CCC[C@H]1C(=O)NCC(=O)N[C@@H](CCC(=O)O)C(=O)N[C@@H](Cc1ccccc1)C(N)=O)[C@@H](C)O [HURP832–846 wt] (Ac-YGGNLITFSPLQPGEF-NH2),Kd,Clathrin NTD [1],134 ± 16 µM
same,Kd,Clathrin NTD [2],266 µM
CC(=O)N[C@@H](CCCCN)C(=O)N[C@@H](Cc1ccc(O)cc1)C(=O)N[C@@H](CO)C(=O)N[C@@H](CC(=O)O)C(=O)N[C@@H](CC(=O)O)C(=O)N[C@H](C(=O)N1CCC[C@H]1C(=O)N[C@@H](CC(C)C)C(=O)N1CCC[C@H]1C(=O)N[C@H](C(=O)N1CCC[C@H]1C(=O)N[C@@H](CO)C(=O)N[C@@H](Cc1ccc(O)cc1)C(=O)N[C@@H](CCCCN)C(=O)N[C@@H](Cc1ccc(O)cc1)C(=O)N[C@@H](CC(N)=O)C(N)=O)[C@@H](C)O)[C@@H](C)O [DHX38_260–275 wt] (Ac-KYSDDTPLPTPSYKYN-NH2),Kd,RANBP2 RanBD4,1500 µM
"H3COC-DMYALTRGSS(E/pS)LADQRK-NH2 [pS375 TOM1_366–382, phosphorylated TOM1 366-382 peptide]",binding in FP displacement experiment,14-3-3 theta,weak affinity
CC(=O)N[C@@H](Cc1ccccc1)C(=O)N1CCC[C@H]1C(=O)N[C@@H](CO)C(=O)N[C@@H](COP(=O)(O)O)C(=O)N[C@@H](Cc1ccc(O)cc1)C(=O)N[C@H](C(=O)N[C@@H](CCCCN)C(=O)N[C@@H](CC(C)C)C(=O)N[C@@H](CC(C)C)C(=O)N[C@@H](CCC(=O)O)C(=O)N[C@@H](CCC(=O)O)C(=O)N[C@@H](CC(N)=O)C(=O)N[C@@H](CCC(=O)O)C(=O)N[C@H](C(=O)N[C@@H](CCC(=O)O)C(=O)N[C@@H](C)C(N)=O)[C@@H](C)O)[C@@H](C)O [BAIAPL1_392–407 pS] (Ac-FPS[pS]YTKLLEENETEA-NH2),Kd,AP2 μ2,930 ± 10 nM
CC[C@H](C)[C@H](NC(=O)[C@@H](NC(=O)[C@@H]1CCCN1C(=O)[C@H](COP(=O)(O)O)NC(=O)[C@H](CO)NC(=O)[C@H](C)NC(=O)[C@@H]1CCCN1C(=O)[C@H](CCSC)NC(=O)[C@@H]1CCCN1C(=O)[C@H](CCC(N)=O)NC(=O)[C@H](Cc1ccc(O)cc1)NC(=O)[C@@H]1CCCN1C(=O)[C@@H](NC(=O)[C@@H](NC(=O)[C@H](CCSC)NC(C)=O)[C@@H](C)O)[C@@H](C)CC)C(C)C)C(=O)N[C@@H](CS)C(N)=O [PCBP1_179–194 pS] (Ac-MTIPYQPMPAS[pS]PVIC-NH2),Kd,AP2 μ2,670 ± 40 nM
"H3COC-DMYALTRGSS(E/pS)LADQRK-NH2 [S375 TOM1_366–382, wild-type TOM1 366-382 (F368Y) peptide]",binding in FP displacement experiment,14-3-3 theta,no binding
CC[C@H](C)[C@H](NC(=O)[C@H](CC(C)C)NC(=O)[C@H](CC(N)=O)NC(=O)CNC(=O)CNC(=O)[C@H](Cc1ccc(O)cc1)NC(C)=O)C(=O)N[C@H](C(=O)N[C@@H](Cc1ccccc1)C(=O)N[C@@H](CCC(=O)O)C(=O)N1CCC[C@H]1C(=O)N[C@@H](CC(C)C)C(=O)N[C@@H](CCC(N)=O)C(=O)N1CCC[C@H]1C(=O)NCC(=O)N[C@@H](CCC(=O)O)C(=O)N[C@@H](Cc1ccccc1)C(N)=O)[C@@H](C)O [HURP832–846 E] (Ac-YGGNLITFEPLQPGEF-NH2),Kd,Clathrin NTD [1],23 ± 2 µM
same,Kd,Clathrin NTD [2],22 µM
CC(=O)N[C@@H](Cc1c[nH]cn1)C(=O)N[C@@H](CC(C)C)C(=O)N1CCC[C@H]1C(=O)N[C@@H](CC(C)C)C(=O)N[C@@H](CC(N)=O)C(=O)N[C@@H](CO)C(=O)N1CCC[C@H]1C(=O)N[C@@H](CC(C)C)C(=O)N1CCC[C@H]1C(=O)NCC(=O)N[C@@H](CO)C(=O)N[C@@H](CCC(=O)O)C(=O)N[C@@H](CC(C)C)C(=O)N[C@H](C(=O)N[C@@H](CCCCN)C(=O)N[C@@H](Cc1ccc(O)cc1)C(N)=O)[C@@H](C)O [INTS6_145–159 wt] (Ac-HLPLNSPLPGSELTKY-NH2),Kd,RANBP2 RanBD4,334 ± 35 µM
CC(=O)N[C@@H](Cc1ccccc1)C(=O)N1CCC[C@H]1C(=O)N[C@@H](CO)C(=O)N[C@@H](CO)C(=O)N[C@@H](Cc1ccc(O)cc1)C(=O)N[C@H](C(=O)N[C@@H](CCCCN)C(=O)N[C@@H](CC(C)C)C(=O)N[C@@H](CC(C)C)C(=O)N[C@@H](CCC(=O)O)C(=O)N[C@@H](CCC(=O)O)C(=O)N[C@@H](CC(N)=O)C(=O)N[C@@H](CCC(=O)O)C(=O)N[C@H](C(=O)N[C@@H](CCC(=O)O)C(=O)N[C@@H](C)C(N)=O)[C@@H](C)O)[C@@H](C)O [BAIAPL1_392–407 wt] (Ac-FPSSYTKLLEENETEA-NH2),Kd,AP2 μ2,1290 ± 60 nM
CC[C@H](C)[C@H](NC(=O)[C@H](CC(C)C)NC(=O)[C@H](CC(N)=O)NC(=O)CNC(=O)CNC(=O)[C@H](Cc1ccc(O)cc1)NC(C)=O)C(=O)N[C@H](C(=O)N[C@@H](Cc1ccccc1)C(=O)N[C@@H](COP(=O)(O)O)C(=O)N1CCC[C@H]1C(=O)N[C@@H](CC(C)C)C(=O)N[C@@H](CCC(N)=O)C(=O)N1CCC[C@H]1C(=O)NCC(=O)N[C@@H](CCC(=O)O)C(=O)N[C@@H](Cc1ccccc1)C(N)=O)[C@@H](C)O [HURP832–846 pS] (Ac-YGGNLITF[pS]PLQPGEF-NH2),Kd,Clathrin NTD [1],< 3 µM
same,IC50,"Clathrin NTD [1]; Fig 6A, clathrin NTD, FP displacement, two to three technical replicates per protein preparation, 2 independent preparations, read-out: IC50 values of displacement curves, with SEM",11 ± 4 µM
same,Kd,Clathrin NTD [2],5 µM and 3 µM
"H3COC-DMYALTRGSS(E/pS)LADQRK-NH2 [S375E TOM1_366–382, phosphomimetic TOM1 366-382 peptide]",binding in FP displacement experiment,14-3-3 theta,no binding
CC[C@H](C)[C@H](NC(=O)[C@@H](NC(=O)[C@@H]1CCCN1C(=O)[C@H](CO)NC(=O)[C@H](CO)NC(=O)[C@H](C)NC(=O)[C@@H]1CCCN1C(=O)[C@H](CCSC)NC(=O)[C@@H]1CCCN1C(=O)[C@H](CCC(N)=O)NC(=O)[C@H](Cc1ccc(O)cc1)NC(=O)[C@@H]1CCCN1C(=O)[C@@H](NC(=O)[C@@H](NC(=O)[C@H](CCSC)NC(C)=O)[C@@H](C)O)[C@@H](C)CC)C(C)C)C(=O)N[C@@H](CS)C(N)=O [PCBP1_179–194 wt] (Ac-MTIPYQPMPASSPVIC-NH2),Kd,AP2 μ2,3700 ± 100 nM
